Reference: patent US12258354B2, “AhR modulators” (IDEAYA BIOSCIENCES, INC., priority 2018, dated 2025)

Molecular target: T1, hAhR (Homo sapiens, UniProt P35869)
T1 construct: Stably integrated DRE-luciferase cell lines were generated by transducing the both cell lines with Cignal XRE luciferase reporter; endogenous in cells; host or cells: HEPG2 DRE-Luc cells (only the XRE luciferase reporter was transduced)
T1 sequence (P35869 11-848): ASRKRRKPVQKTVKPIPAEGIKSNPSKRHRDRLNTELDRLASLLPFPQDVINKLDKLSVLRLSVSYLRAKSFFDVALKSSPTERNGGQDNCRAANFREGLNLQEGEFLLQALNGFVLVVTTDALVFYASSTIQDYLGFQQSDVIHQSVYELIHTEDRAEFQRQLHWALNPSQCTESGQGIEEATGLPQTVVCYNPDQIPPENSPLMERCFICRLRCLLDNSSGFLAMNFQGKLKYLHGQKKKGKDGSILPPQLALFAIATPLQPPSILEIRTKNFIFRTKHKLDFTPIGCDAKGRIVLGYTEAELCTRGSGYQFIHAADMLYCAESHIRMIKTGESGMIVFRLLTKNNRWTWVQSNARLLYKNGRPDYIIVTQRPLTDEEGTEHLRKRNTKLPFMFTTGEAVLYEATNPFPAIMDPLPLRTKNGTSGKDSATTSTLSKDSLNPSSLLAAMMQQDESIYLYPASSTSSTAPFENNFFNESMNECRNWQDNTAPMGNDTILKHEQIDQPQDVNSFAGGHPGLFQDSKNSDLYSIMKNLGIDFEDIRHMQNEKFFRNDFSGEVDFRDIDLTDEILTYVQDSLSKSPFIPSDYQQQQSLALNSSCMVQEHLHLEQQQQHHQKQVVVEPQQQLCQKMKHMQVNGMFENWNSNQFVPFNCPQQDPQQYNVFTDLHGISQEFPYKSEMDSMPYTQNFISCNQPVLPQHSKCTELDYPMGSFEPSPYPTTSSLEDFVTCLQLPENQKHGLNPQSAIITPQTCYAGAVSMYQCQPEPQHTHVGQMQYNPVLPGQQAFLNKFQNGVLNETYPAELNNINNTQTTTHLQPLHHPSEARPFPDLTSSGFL
Assay: DRE-luciferase transcriptional reporter assay in HEPG2 DRE-Luc cells, TCDD-induced (antagonist mode)
Format: cell-based
Conditions: relative IC50, 3 nM TCDD, 24-hour incubation, firefly luciferase readout
Protocol: HEPG2 and HEPA1C1C7 cells were maintained in MEM and αMEM without nucleosides supplemented with 10% heat inactivated FBS respectively. Stably integrated DRE-luciferase cell lines were generated by transducing the both cell lines with Cignal XRE luciferase reporter (Qiagen) lentiviral particles according to the manufacturer protocol. For both cell lines stably integrated reporter cell lines were selected for the presence of 2 μg/mL puromycin. Following selection of stably integrated cell line pools, clonal cell lines were isolated by limiting dilution in 96-well plates. Transcriptional assays were performed by seeding 100 μL of cells at a density of 250,000 or 100,000 cells/mL, for HEPG2 and HEPA1C1C7 DRE-Luc cells respectively, into 96-well cell culture plates in OptiMEM supplemented with 0.5% heat inactivated FBS and allowed to attach overnight. For modulator assays, the compounds were added in a semi-log dose response using a D300e Digital Dispenser (Tecan) followed normalization with vehicle (DMSO). Immediately following compound addition 10 μL of 2,3,7,8-Tetrachlorodibenzo-p-dioxin (TCDD) was added to the cells to a final concentration of 3 nM or 0.3 nM for the HEPG2 and HEPA1C1C7 DRE-Luc cells respectively. Following 24-hour incubation, the medium was removed and the cells were lysed in 25 μL of Reporter Lysis Buffer (Promega). Firefly luciferase activity was measured immediately following the addition of 50 μL Luciferase Assay Reagent (Promega). The percent maximal activity for each point was determined using the following equation: (RLUsample−RLUvehicle−TCDD)/(RLUvehicle+TCDD RLUvehicle−TCDD)*100. The relative IC50, defined as the compound concentration required to reduce the TCDD induced response between the top and bottom plateau of each individual dose response curve by half, for each compound was determined using Prism 7 (GraphPad Software).

| SMILES | IC50 |
| --- | --- |
| Cc1cc(-c2ncc3cc(F)ccc3n2)ccc1N1CCOc2cnn(C)c2C1=O [compound 053, 7-(4-(6-fluoroquinazolin-2-yl)-2-methylphenyl)-1-methyl-6,7-dihydro-1H-pyrazolo[3,4-f][1,4]oxazepin-8 (5H)-one] | 200 to 500 nM |
| CCOC(=O)c1nn(C)c2c1OCCN(c1ccc(-c3ncc4nc(C(F)(F)F)ccc4n3)cc1C)C2=O [compound 086, ethyl 1-methyl-7-(2-methyl-4-(6-(trifluoromethyl)pyrido[3,2-d]pyrimidin-2-yl)phenyl)-8-oxo-5,6,7,8-tetrahydro-1H-pyrazolo[3,4-f][1,4]oxazepine-3-carboxylate] | < 200 nM |
| Cc1cc(N2CCOc3cnn(C)c3C2=O)c(C)cc1-c1ccc2nc(C(F)(F)F)cc(C)c2n1 [compound 005, 7-(2,5-dimethyl-4-(8-methyl-6-(trifluoromethyl)-1,5-naphthyridin-2-yl)phenyl)-1-methyl-6,7-dihydro-1H-pyrazolo[3,4-f][1,4]oxazepin-8 (5H)-one] | < 200 nM |
| Cc1cc(-c2ccc3nc(C(F)(F)F)ccc3n2)ccc1N1CCn2ncc(C)c2C1=O [compound 006, 3-methyl-5-(2-methyl-4-(6-(trifluoromethyl)-1,5-naphthyridin-2-yl)phenyl)-6,7-dihydropyrazolo[1,5-a]pyrazin-4 (5H)-one] | < 200 nM |
| Cc1cc(-c2ccc3nc(C(F)(F)F)ccc3n2)ccc1N1CCOc2cn(C)nc2C1=O [compound 048, 2-methyl-7-(2-methyl-4-(6-(trifluoromethyl)-1,5-naphthyridin-2-yl)phenyl)-6,7-dihydro-2H-pyrazolo[3,4-f][1,4]oxazepin-8 (5H)-one] | < 200 nM |

More lines, now with the values ahead:

| IC50 | SMILES |
| --- | --- |
| < 200 nM | Cc1cc(-c2ncc3cc(C(F)(F)F)ccc3n2)ccc1N1CCn2nc(CN3CCOCC3)c(C)c2C1=O [compound 061, 3-methyl-5-(2-methyl-4-(6-(trifluoromethyl)quinazolin-2-yl)phenyl)-2-(morpholinomethyl)-6,7-dihydropyrazolo[1,5-a]pyrazin-4 (5H)-one] |
| 1000 to 10000 nM | Cc1cc(-c2ncc3cc(C(F)(F)F)ccc3n2)ccc1N1CCOc2cnn(CC(=O)O)c2C1=O [compound 076, 2-(7-(2-methyl-4-(6-(trifluoromethyl)quinazolin-2-yl)phenyl)-8-oxo-5,6,7,8-tetrahydro-1H-pyrazolo[3,4-f][1,4]oxazepin-1-yl)acetic acid] |
| < 200 nM | Cc1cc(-c2ncc3cc(C(F)(F)F)ccc3n2)ccc1N1CCn2nc(N)c(C)c2C1=O [Example 113, 2-amino-3-methyl-5-(2-methyl-4-(6-(trifluoromethyl)quinazolin-2-yl)phenyl)-6,7-dihydropyrazolo[1,5-a]pyrazin-4 (5H)-one] |
| < 200 nM | Cc1cc(-c2ncc3cc(C(F)(F)F)ccc3n2)ccc1N1CCn2nc(C(C)(C)O)c(C)c2C1=O [compound 059, 2-(2-hydroxypropan-2-yl)-3-methyl-5-(2-methyl-4-(6-(trifluoromethyl)-quinazolin-2-yl)phenyl)-6,7-dihydropyrazolo[1,5-a]pyrazin-4 (5H)-one] |
| < 200 nM | Cc1cc(-c2ncc3cc(C(F)(F)F)ccc3n2)ccc1N1CCn2nc(CN3CCC(F)CC3)c(C)c2C1=O [Example 99, 2-((4-fluoropiperidin-1-yl)methyl)-3-methyl-5-(2-methyl-4-(6-(trifluoromethyl)-quinazolin-2-yl)phenyl)-6,7-dihydropyrazolo[1,5-a]pyrazin-4 (5H)-one] |
| < 200 nM | Cc1cc(-c2ncc3cc(C(F)(F)F)ccc3n2)ccc1N1CCc2cnn(C)c2C1=O [compound 015, 1-methyl-6-(2-methyl-4-(6-(trifluoromethyl)quinazolin-2-yl)phenyl)-1,4,5,6-tetrahydro-7H-pyrazolo[3,4-c]pyridin-7-one] |
| < 200 nM | Cc1cc(-c2ncc3cc(C(F)(F)F)ccc3n2)ccc1N1CCn2nc(CN3CCC(=O)CC3)c(C)c2C1=O [Example 98, 3-methyl-5-(2-methyl-4-(6-(trifluoromethyl)quinazolin-2-yl)phenyl)-2-((4-oxopiperidin-1-yl)methyl)-6,7-dihydropyrazolo[1,5-a]pyrazin-4 (5H)-one] |
